# Data: the supplement of paper PMC10307832
# Legend:
# Experiment in all cases: relative viability (nuclei count vs DMSO), 5 days (fraction); higher = more cells survive
# [1] = compound: N#CC[C@H](C1CCCC1)n1cc(-c2ncnc3[nH]ccc23)cn1 [Ruxolitinib] + CC(=O)c1c(C)c2cnc(Nc3ccc(N4CCNCC4)cn3)nc2n(C2CCCC2)c1=O [Palbociclib] (partner 0.5 µM)
# Summary of the method: (§1)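 Relative viability was taken as the ratio of nuclei in treated wells to nuclei in vehicle wells. Lung cancer cell lines in 1536-well plates received compounds by pin tool one day after seeding, either one drug alone or a fixed anchor-drug dose plus five library-drug doses (not always all listed) in √10 steps. Nuclei were counted on 4× images after 5 days of treatment, and values are medians of duplicate plates.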
# VE-821 + AZD7762 = compound: CS(=O)(=O)c1ccc(-c2cnc(N)c(C(=O)Nc3ccccc3)n2)cc1 [VE-821] + NC(=O)Nc1cc(-c2cccc(F)c2)sc1C(=O)N[C@H]1CCCNC1 [AZD7762] (partner 0.2 µM)
# Summary of the method: as §1
# Vismodegib + Palbociclib = compound: CS(=O)(=O)c1ccc(C(=O)Nc2ccc(Cl)c(-c3ccccn3)c2)c(Cl)c1 [Vismodegib] + CC(=O)c1c(C)c2cnc(Nc3ccc(N4CCNCC4)cn3)nc2n(C2CCCC2)c1=O [Palbociclib] (partner 0.5 µM)
# Summary of the method: as §1
# Vismodegib + Linsitinib = compound: CS(=O)(=O)c1ccc(C(=O)Nc2ccc(Cl)c(-c3ccccn3)c2)c(Cl)c1 [Vismodegib] + C[C@]1(O)C[C@@H](c2nc(-c3ccc4ccc(-c5ccccc5)nc4c3)c3c(N)nccn32)C1 [Linsitinib] (partner 1 µM)
# Summary of the method: as §1
Cell Line,relative viability ([1]; first compound 0.08 µM),relative viability ([1]; first compound 0.253 µM),relative viability ([1]; first compound 0.8 µM),relative viability ([1]; first compound 2.53 µM),relative viability ([1]; first compound 8 µM),relative viability (VE-821 + AZD7762; first compound 0.08 µM),relative viability (VE-821 + AZD7762; first compound 0.253 µM),relative viability (VE-821 + AZD7762; first compound 0.8 µM),relative viability (VE-821 + AZD7762; first compound 2.53 µM),relative viability (VE-821 + AZD7762; first compound 8 µM),relative viability (Vismodegib + Palbociclib; first compound 0.08 µM),relative viability (Vismodegib + Palbociclib; first compound 0.253 µM),relative viability (Vismodegib + Palbociclib; first compound 0.8 µM),relative viability (Vismodegib + Palbociclib; first compound 2.53 µM),relative viability (Vismodegib + Palbociclib; first compound 8 µM),relative viability (Vismodegib + Linsitinib; first compound 0.08 µM),relative viability (Vismodegib + Linsitinib; first compound 0.253 µM),relative viability (Vismodegib + Linsitinib; first compound 0.8 µM),relative viability (Vismodegib + Linsitinib; first compound 2.53 µM),relative viability (Vismodegib + Linsitinib; first compound 8 µM)
201T,0.366,0.362,0.407,0.433,0.397,0.67,0.578,0.585,0.648,0.46,0.323,0.393,0.363,0.359,0.382,0.954,1.09,1,0.978,1.01
A-427,0.557,0.516,0.556,0.499,0.464,0.767,0.599,0.417,0.362,0.327,0.536,0.525,0.506,0.493,0.566,1.12,1.09,1.11,1.11,1.12
ABC-1,–,0.831,0.652,0.808,0.754,0.86,0.767,0.94,0.714,0.628,0.667,1.01,0.542,0.618,0.73,0.666,0.682,0.79,0.821,0.794
BEN,0.488,0.456,0.504,0.503,0.51,0.651,0.62,0.675,0.505,0.396,0.455,0.483,0.469,0.479,0.512,0.951,0.939,0.929,0.964,0.99
CAL-12T,0.316,0.334,0.461,0.363,0.223,0.568,0.514,0.512,0.352,0.239,0.45,0.499,0.569,0.454,0.442,0.927,0.765,0.95,0.722,0.679
EKVX,–,0.358,0.393,0.34,0.333,0.754,0.638,0.696,0.744,0.424,–,0.38,0.392,0.325,0.433,0.949,1.04,0.929,0.894,0.989
EMC-BAC-2,0.518,0.507,0.58,0.47,0.418,1.15,1.02,1.12,1.19,0.587,0.508,0.498,0.516,0.508,0.546,0.785,0.803,0.914,0.776,0.82
EPLC-272H,0.285,0.331,0.38,0.365,0.412,0.163,0.149,0.2,0.188,0.127,0.307,0.305,0.355,0.342,0.311,1.24,1.18,0.986,1.04,1.1
H3255,0.307,0.297,0.315,0.266,0.263,0.96,0.927,0.913,0.932,0.649,0.296,0.29,0.292,0.33,0.324,0.967,0.88,1,0.959,0.897
HARA,0.301,0.273,0.286,0.228,0.253,0.256,0.315,0.145,0.158,0.249,0.284,0.245,0.221,0.303,0.27,0.844,0.944,0.76,0.967,1.04
HCC-15,0.708,0.718,0.759,0.663,0.635,1.35,0.434,1.23,1.29,1.26,0.718,0.715,0.794,0.838,0.738,0.896,0.876,0.834,1.01,0.897
HCC-44,0.995,1.03,0.98,0.942,0.947,0.94,0.944,1.07,0.964,0.914,1.02,0.92,0.911,0.913,1.01,0.668,0.581,0.66,0.715,0.71
HCC-78,0.422,0.481,0.431,0.507,0.492,0.679,0.626,0.5,0.58,0.392,0.535,0.505,0.483,0.44,0.488,0.474,0.477,0.406,0.588,0.488
HCC-366,0.417,0.441,0.389,0.365,0.19,0.235,0.148,0.0505,0.056,0.0429,0.342,0.373,0.463,0.456,0.449,0.628,0.636,0.575,0.563,0.703
HCC-827,–,0.275,0.408,0.366,0.411,0.178,0.194,0.169,0.18,0.189,0.222,0.517,0.449,0.446,0.481,0.926,0.906,0.949,0.896,1.04
HOP-62,0.454,0.451,0.45,0.435,0.411,0.906,0.616,0.406,0.392,0.19,0.4,0.411,0.425,0.46,0.39,0.988,0.873,1.16,0.748,0.979
